IC50 data for three compounds are collected here from patent US5578619A, “Alkoxy-substituted dihydrobenzopyran-2-sulfonimides” (priority 1995, dated 1996).

The IC50 is the concentration that gives 50% inhibition.

Assay [1] concerns Human neutrophils (LTB4 chemotaxis). The assay can be described thus: Modified Boyden Chamber Chemotaxis (LTB4-induced neutrophil chemotaxis). The class given is cell-based. The settings on record: 3×10^-8 M LTB4, 40-90 minute incubation at 37° C. An excerpt:
Neutrophils were purified from venous blood of normal human donors using standard techniques of dextran sedimentation, centrifugation on Ficoll-paque® (Pharmacia) or Histopaque® sterile solution (Sigma) and hypotonic lysis of erythrocytes (Boyum, A., Isolation of Leukocytes From Human Blood: Further Observations. Scand. J. Lab. Clin. Invest., 21 (Suppl. 97): 31, 1968). The purity of isolated neutrophils was >95%.
Human neutrophils were isolated from citrated peripheral blood using standard techniques of dextran sedimentation, followed by centrifugation on Histopaque® sterile solution (Sigma) or Ficoll-paque® (Pharmacia) and hypotonic lysis of erythrocytes. A final cell suspension of 3.4×10^6 neutrophils/ml of HEPES-buffered Hanks' balanced salt solution (HBSS, pH 7.3) was added to the upper well (0.8 ml) of a modified Boyden chamber (blind well). The lower well (0.2 ml), separated by a polycarbonate membrane (Nucleopore Corp.), contained HBSS or 3×10^-8 M LTB4 in the presence or absence of test compound. Following a 40-90 minute incubation at 37° C. in 5% CO2 -95% air, cells from the lower well were lysed and nuclei counted in a Model S-Plus-IV Coulter Counter. The number of neutrophils migrating into the lower chamber in the absence of chemoattractant was subtracted from the number of cells migrating in the presence of a chemoattractant. Inhibition of chemotaxis by test compounds was expressed as percent inhibition relative to uninhibited control.

For another assay, the target named is T1, LTB4 Receptor (Homo sapiens, UniProt Q15722).
T1 construct: Neutrophils were purified from venous blood of normal human donors; endogenous in cells; host or cells: human neutrophils from venous blood of normal donors (purity >95%)
Kind of assay: LTB4 Receptor Binding Assay. The settings on record: human neutrophils, 0.6×10^-9 M (3H)LTB4, 0° C., 45 minutes. The procedure: Neutrophils were purified from venous blood of normal human donors using standard techniques of dextran sedimentation, centrifugation on Ficoll-paque® (Pharmacia) or Histopaque® sterile solution (Sigma) and hypotonic lysis of erythrocytes (Boyum, A., Isolation of Leukocytes From Human Blood: Further Observations. Scand. J. Lab. Clin. Invest., 21 (Suppl. 97): 31, 1968).
Neutrophils (4- 6×10^6) in 1 ml Hanks' balanced salt solution (HBSS) containing 10 mM HEPES buffer, pH 7.4 and 20 mM nordihydroguaiaretic acid were incubated with 0.6×10^-9 M (^3 H) LTB4 in the presence or absence of test compounds. The incubation was carried out at 0° C. for 45 minutes and terminated by adding 5 ml of ice-cold HBSS followed by rapid filtration of the incubation mixture under vacuum through GF/C glass fiber filters. The filters were further washed with 10 ml HBSS and radioactivity was determined. Specific binding was defined as the difference between total binding and nonspecific binding which was not displaced by 10^-7 M unlabeled LTB4. All data refer to specific binding.

T1 sequence (Q15722 whole entry): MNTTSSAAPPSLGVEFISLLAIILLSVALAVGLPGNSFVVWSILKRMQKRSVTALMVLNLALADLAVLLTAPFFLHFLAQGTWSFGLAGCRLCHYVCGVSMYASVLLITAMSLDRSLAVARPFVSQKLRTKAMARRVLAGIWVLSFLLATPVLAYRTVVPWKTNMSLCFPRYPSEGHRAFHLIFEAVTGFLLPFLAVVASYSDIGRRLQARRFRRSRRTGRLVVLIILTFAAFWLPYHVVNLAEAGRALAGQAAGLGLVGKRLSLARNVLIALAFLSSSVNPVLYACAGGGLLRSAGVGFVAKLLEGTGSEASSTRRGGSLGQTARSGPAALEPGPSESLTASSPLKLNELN

`CCCc1c(OCCCOc2ccc(C(C)=O)c(OC)c2CCC)ccc2c1OC(C(=O)O)CC2` (centres unmarked) [Example 1(b), 7-[3-(4-acetyl-3-methoxy-2-propylphenoxy)propoxy]-3,4-dihydro-8-propyl-2H-1-benzopyran-2-carboxylic acid, reference compound] returned an IC50 in assay [1] of 1050 nM.

Consider `CCCc1c(OCCCOc2ccc(-c3cscn3)c(OC)c2CC2CC2)ccc2c1OC(C(=O)NS(=O)(=O)c1ccccc1)CC2` (centres unmarked) [Example 9, Benzo sulfonimide of 7-[3-[2-(Cyclopropylmethyl)-3-methoxy-4-(4-thiazolyl)phenoxy]propoxy]-3,4-dihydro-8-propyl-2H-1-benzopyran-2-carboxylic acid], for which the IC50 came out at 5.5 nM at LTB4 Receptor and 53 nM in assay [1].

`CCCc1c(OCCCOc2ccc(-c3cscn3)c(OC)c2CC2CC2)ccc2c1OC(CCC(=O)NS(=O)(=O)c1ccccc1)CC2` (centres unmarked) [Example 15, Benzo sulfonimide of 3,4-Dihydro-7-[3-[3-methoxy-2-cycloproplymethyl-4-(4-thiazolyl)phenoxy]propoxy]-8-propyl-2H-1-benzopyran-2-propionic acid]: the IC50 is 4.3 nM on LTB4 Receptor and 66 nM in assay [1].
